Measurements from patent US20070286867A1, “Combination Therapy” (Fusion Antibodies Limited, priority 2003, published 2007).
Where a SMILES comes first, the peptide text is derived from it. The star is where a group is joined. Cbz = O=C(OCc1ccccc1)*; CH2F = FC*

Experiments:
[1] = system: procaspase 8, BID, PARP; experiment: Western blot of procaspase 8, BID and PARP in MCF-7 cells; assay type: cell-based
Description: (§1) Western Blotting. Western blots were performed as previously described (6). The Fas/CD95, Bc1-2 and BID (Santa Cruz Biotechnology, Santa Cruz, Calif.), caspase 8 (Oncogene Research Products, Darmstadt, Germany), p53 (Santa Cruz Biotechnology), and PARP (Pharmingen, BD Biosciences, Oxford, England) mouse monoclonal antibodies were used in conjunction with a horseradish peroxidase (HRP)-conjugated sheep anti-mouse secondary antibody (Amersham, Little Chalfont, Buckinghamshire, England). FasL rabbit polyclonal antibody (Santa Cruz Biotechnology) was used in conjunction with an HRP-conjugated donkey anti-rabbit secondary antibody (Amersham). TS sheep monoclonal primary antibody (Rockland, Gilbertsville, Pa.) was used in conjunction with an HRP-conjugated donkey anti-sheep secondary antibody (Serotech, Oxford, England). Equal loading was assessed using a β-tubulin mouse monoclonal primary antibody (Sigma).

[2] = system: procaspase 8, PARP; experiment: Western blot of procaspase 8 and PARP in M7TS90-E6 cells; assay type: cell-based; conditions: p53 null; 5-FU 10 μM, RTX 100 nM, MTA 1 μM, CH-11 250 ng/ml; drugs alone data not shown
Description: as §1

[3] = system: FasL; experiment: Western blot of FasL expression in MCF-7 cells; assay type: cell-based; conditions: IC60 doses, 72 hours
Description: as §1

[4] = system: Fas; experiment: Western blot of Fas expression in M7TS90 cells; assay type: cell-based; conditions: 10 μM 5-FU, 100 nM RTX or 1 μM MTA for 72 hours
Description: as §1

[5] = system: Fas; experiment: Western blot of Fas expression in M7TS90-E6 cells; assay type: cell-based; conditions: 10 μM 5-FU, 100 nM RTX or 1 μM MTA
Description: as §1

[6] = system: Fas; experiment: Western blot of Fas expression in HCT116 p53 wild-type cells; assay type: cell-based, human; conditions: for Fas expression: RTX after 72 hours, MTA data not shown; for induction of Fas/CD95 protein: 5-FU 5 μM, CPT-11 5 μM, Oxaliplatin 1 μM for 48 hours
Description: as §1

[7] = system: Fas/CD95 receptor; experiment: Flow cytometry of Fas/CD95 cell surface expression, HCT116 p53 null; assay type: cell-based, human; conditions: 24 hours
Description: (§2) Cells were seeded at 1×10^5 per well of a 6-well tissue culture plate. […] DNA content of harvested cells was evaluated after propidium iodide staining of cells using the EPICS XL Flow Cytometer (Coulter, Miami, Fla.). […] Cells were seeded at 1×10^5 per well of a 6-well tissue culture plate. […] DNA content of harvested cells was evaluated after propidium iodide staining of cells using the EPICS XL Flow Cytometer (Coulter). A FITC-conjugated monoclonal anti-human Fas antibody (DAKO) was used to determine cell surface expression of the receptor. Cells were collected and washed twice in PBS before incubating in the antibody (1/20 dilution) at 4° C. for 30 mins. A non-reactive FITC-conjugated mouse IgG1 antibody was used as a negative control for each sample. Following incubation the cells were washed twice with PBS containing 2% bovine serum albumin and fixed in 0.3 mL 4% paraformaldehyde. Samples were then analysed on the EPICS XL Flow Cytometer (Coulter).

[8] = system: M7TS90-E6 cells; experiment: Flow cytometry sub-G1/G0 apoptotic fraction, M7TS90-E6; assay type: cell-based; conditions: 96 hours after drug treatment; RTX 100 nM, MTA 1 μM, 5-FU 10 μM
Description: (§3) Where flow cytometric analysis was employed in Examples 1 to 5, the following protocol was used. Cells were seeded at 1×10^5 per well of a 6-well tissue culture plate. […] DNA content of harvested cells was evaluated after propidium iodide staining of cells using the EPICS XL Flow Cytometer (Coulter, Miami, Fla.). Where flow cytometric analysis was employed in Examples 6 to 12, the following protocol was used. Cells were seeded at 1×10^5 per well of a 6-well tissue culture plate. […] DNA content of harvested cells was evaluated after propidium iodide staining of cells using the EPICS XL Flow Cytometer (Coulter). A FITC-conjugated monoclonal anti-human Fas antibody (DAKO) was used to determine cell surface expression of the receptor. Cells were collected and washed twice in PBS before incubating in the antibody (1/20 dilution) at 4° C. for 30 mins. A non-reactive FITC-conjugated mouse IgG1 antibody was used as a negative control for each sample. Following incubation the cells were washed twice with PBS containing 2% bovine serum albumin and fixed in 0.3 mL 4% paraformaldehyde. Samples were then analysed on the EPICS XL Flow Cytometer (Coulter).

[9] = system: HCT116p53^+/+ cells; experiment: MTT cell viability assay in HCT116 p53 wild-type cells; assay type: cell-based, human; conditions: for interaction with CH-11 in MTT assay: range of drug concentrations 24 hours, then CH-11 200 ng/ml for 48 hours
Description: (§5) Cell Viability Assays. Cell viability was assessed by MTT (3-(4,5-dimethylthiazol-2-yl)-2,5-diphenyltetrazolium bromide, Sigma) assay (12). […] MTT (0.5 mg/ml) was then added to each well and the cells incubated at 37° C. for a further 3 hours. The culture medium was removed and formazan crystals reabsorbed in 200 μL DMSO. Cell viability was determined by reading the absorbance of each well at 570 nm using a 96-well microplate reader (Molecular Devices, Wokingham, England). […] Twenty microlitres (20 μL) MTT (5 mg/ml) was then added to each well and the cells incubated at 37° C. for a further 3 hours. The culture medium was removed and formazan crystals reabsorbed in 200 μL DMSO. Cell viability was determined by reading the absorbance of each well at 570 nm using an ELISA plate reader (Molecular Devices).
(§6) Statistical Analyses. The nature of the interaction between the chemotherapeutic drugs and CH-11 was determined by calculating the R index (RI), which was initially described by Kern and later modified by Romaneli (13, 14). […] Synergism is then defined as an RI of greater than unity. […] To further assess the statistical significance of the interactions, the inventors designed a univariate ANOVA analysis using the SPSS software package. This was an additive model based on the null hypothesis that there was no interaction between the drugs.

[10] = system: Fas; experiment: Western blot of Fas expression in H630 cells; assay type: cell-based; conditions: range of concentrations, 48 hours
Description: as §1

[11] = system: Fas/CD95 mRNA; experiment: Real-time PCR of Fas/CD95 mRNA in HCT116 p53 wild-type cells; assay type: cell-based, human; conditions: IC60 72hrs doses
Description: (§4) Real-time PCR was performed using a DNA Engine Opticon 2 (MJ Research Incorporated). TheDyNAmo SYBR Green qPCR kit (Finnzymes) was used as the fluoresent dye specific for double-stranded DNA. PCR conditions consisted of an initial denaturation step of 95° C. for 10 minutes, followed by 39 cycles of 94° C. for 10 secs, 55° C. for 20 secs and 72° C. for 20 secs, with a final extension of 72° C. for 10 minutes. A melting curve was included at the end of each run to check the specificity of the amplified product. Experiments were performed in triplicate to ensure reproducibility of the technique. On completion of the run the PCR products were run put on a 2% ethidium bromide agarose gel to confirm that their size matched that of the expected amplicon. Primer sequences were as follows: Fas (Forward) […], Fas (Reverse) […], 18S (Forward) […], 18S (Reverse) […].

[12] = system: MCF-7 cells; experiment: Flow cytometry of propidium iodide stained cells, sub-G1/G0 apoptotic fraction, MCF-7; assay type: cell-based; conditions: 25 nM RTX 72 hours, 250 ng/ml CH-11 24 hours; untreated control ~11%
Description: as §3

[13] = system: MCF-7 cells; experiment: MTT cell viability assay in MCF-7 cells; assay type: cell-based
Description: as §5, §6

[14] = system: HCT116 p53 null cells; experiment: Propidium iodide flow cytometry, HCT116 p53 null; assay type: cell-based, human; conditions: drug 24 hours followed by CH-11 50 ng/ml 24 hours
Description: as §2

[15] = system: Fas; experiment: Western blot of Fas expression in RKO cells; assay type: cell-based; conditions: 48 hours post-treatment; MTA data not shown
Description: as §1

[16] = system: Fas; experiment: Western blot of Fas expression in MCF-7 cells; assay type: cell-based
Description: as §1

[17] = system: Fas/CD95 mRNA; experiment: Real-time PCR of Fas/CD95 mRNA in HCT116 p53 null cells; assay type: cell-based, human; conditions: IC60 72hrs doses, 24 and 48 hours
Description: as §4

[18] = system: HCT116p53^−/− cells; experiment: MTT cell viability assay in HCT116 p53 null cells; assay type: cell-based, human; conditions: range of drug concentrations 24 hours, then CH-11 200 ng/ml for 48 hours
Description: as §5, §6

[19] = system: Fas receptor; experiment: Fas/CD95 cell surface expression in p53 mutant H630 cell line (Example 11); assay type: cell-based; conditions: 48 hours; 5-FU 5 μM, CPT-11 5 μM, Oxaliplatin 1 μM
Description: as §3

[20] = system: Fas/CD95 receptor; experiment: Flow cytometry of Fas/CD95 cell surface expression, HCT116 p53 wild-type; assay type: cell-based, human; conditions: 24 hours
Description: as §3

[21] = system: RKO cells; experiment: MTT cell viability assay in RKO cells; assay type: cell-based; conditions: data not shown
[22] = system: procaspase 8, PARP; experiment: Western blot of procaspase 8 and PARP in HCT116 p53 null cells; assay type: cell-based, human; conditions: IC60 dose 24 hours followed by CH-11 200 ng/ml 24 hours
Description: as §1

[23] = system: Fas; experiment: Western blot of Fas expression in HCT116 p53 null cells; assay type: cell-based, human; conditions: CPT-11 5 μM, 48 hours
Description: as §1

[24] = system: H630 cells; experiment: MTT cell viability assay in p53 mutant H630 cells; assay type: cell-based; conditions: drug 24 hours, then CH-11 for 48 hours (Example 11)
Description: as §5, §6

SMILES | PARP cleavage / processing [2] | effect of TS induction on drug-mediated up-regulation of Fas [4] | Fas up-regulation [5] | Fas expression [6] | induction of Fas/CD95 receptor cell surface expression [7] | induction of apoptosis by drug alone [8] [fold] | interaction with CH-11 in MTT assay [9] | interaction with CH-11 by propidium iodide staining [14] | Fas expression [15] | maximum induction of Fas mRNA [17] | induction of Fas/CD95 protein [6] | induction of the Fas receptor [19] | other results
CC[C@H](C)[C@H](NC(=O)OCc1ccccc1)C(=O)N[C@@H](CCC(=O)OC)C(=O)N[C@H](C(=O)N[C@@H](CC(=O)OC)C(=O)CF)[C@@H](C)O [IETD-fmk] (Cbz-IE(OMe)TD(OMe)-CH2F) | – | – | – | – | – | – | – | – | – | – | – | – | effect on PARP cleavage in 5-FU/CH-11 co-treated cells ([1]; 10 μM IETD-fmk, 24 hours): inhibited PARP cleavage; effect on processing of procaspase 8 in cells co-treated with 5-FU and CH-11 ([1]; 10 μM IETD-fmk, 24 hours): blocked processing of procaspase 8
Cc1nc2ccc(CN(C)c3ccc(C(=O)N[C@@H](CCC(=O)O)C(=O)O)s3)cc2c(=O)[nH]1 [RTX, ralitrexed] | processed | abrogated | did not result in Fas up-regulation | dramatically increased | induction of the Fas/CD95 receptor | ~8 | significant synergy | to a lesser extent | dramatic Fas up-regulation | – | – | – | FasL expression [3]: unaffected; Fas expression [10]: not significantly altered; induction of Fas mRNA expression ([11]; 24 and 48 hours): significant induction; activation of caspase 8 and BID (processing of procaspase 8 and full-length BID), words ([1]; 5 μM 5-FU or 25 nM RTX 72 hours, CH-11 250 ng/ml 24 hours): neither caspase 8, nor its substrate BID were activated; cells in the sub-G1/G0 apoptotic phase [12]: ~16%; IC60 dose ([13]; MCF-7): 25 nM; Fas protein up-regulation ([16]; 72 hours, IC60 dose (5 μM 5-FU, 25 nM RTX)): ~7 fold
O=C1[O][Pt]2([NH][C@@H]3CCCC[C@H]3[NH]2)[O]C1=O [Oxaliplatin] | – | – | – | – | – | – | significant synergy | – | – | no induction | significant induction | Neither 5-FU nor Oxaliplatin treatment for 48 hours caused significant upregulation | interaction with CH-11 in MTT assay [18]: no synergistic interaction; induction of Fas/CD95 receptor cell surface expression [20]: significantly induce expression
Nc1nc2[nH]cc(CCc3ccc(C(=O)N[C@@H](CCC(=O)O)C(=O)O)cc3)c2c(=O)[nH]1 [MTA, pemetrexed] | processed | abrogated | did not result in Fas up-regulation | up-regulated | – | ~6 | – | – | up-regulated | – | – | – | interaction with CH-11 to decrease cell viability [21]: synergistically interacted; interaction with CH-11 to decrease cell viability ([9]; data not shown): synergistically interacted; interaction with CH-11 to decrease cell viability ([13]; data not shown): synergistically interacted; Fas expression ([16]; MTA data not shown, CH-11 alone 250 ng/ml, 5-FU alone 5 μM): up-regulated
CCc1c2c(nc3ccc(OC(=O)N4CCC(N5CCCCC5)CC4)cc13)-c1cc3c(c(=O)n1C2)COC(=O)[C@]3(O)CC [CPT-11, Irinotecan] | – | – | – | – | induction of the Fas/CD95 receptor | – | significant synergy | significant synergy | – | 1.9 fold | significant induction | Induction of the Fas receptor | fold induction of Fas mRNA ([11]; 24 hours): 7.0 fold; fold induction of Fas mRNA ([11]; 48 hours): 2.5 fold; PARP cleavage and procaspase 8 activation following the addition of CH-11 [22]: PARP cleavage and procaspase 8 activation; induction of Fas/CD95 protein [23]: induction of Fas/CD95 protein; interaction with CH-11 in MTT assay [24]: significant synergy
